Assay results reported in ChEMBL document CHEMBL1126528, “Synthesis and biological evaluation of a series of HIV-1 protease inhibitors” (Bioorg Med Chem Lett, 1993).

What was measured:
[1] = biological target: Human immunodeficiency virus type 1 protease (Human immunodeficiency virus 1, UniProt Q72874); assay: Concentration required for inhibitory activity against HIV-1 Protease
[2] = tested on: MT2; assay: Concentration required for anti-viral activity (Anti-HIV-IIIB activity) against human T lymphoid (MT-2) cells that are infected with HIV-IIIB virus; type: functional, cell-based

Compound | IC50 [1] [nM] | IC50 [2] [nM]
CN(CC(O)C[C@@H](Cc1ccccc1)C(=O)N[C@H]1CCCC[C@@H]1NC(=O)c1ccc2ccccc2n1)[C@@H](CC1CCCCC1)C(=O)NC(C)(C)C (some centres undefined) | > 1400 | > 1750
CC[C@H](C)[C@H](NC(=O)[C@H](CC(C)C)CC(O)CN1C[C@H]2CCCC[C@H]2C[C@H]1C(=O)NC(C)(C)C)C(=O)NCc1nc2ccccc2[nH]1 (some centres undefined) | 30 | 31
CC[C@H](C)[C@H](NC(=O)[C@H](Cc1ccccc1)CC(O)CN1CCCCC1C(=O)NC(C)(C)C)C(=O)NCc1ccccn1 (some centres undefined) | 250 | > 1750
CC[C@H](C)[C@H](NC(=O)[C@H](Cc1ccccc1)CC(O)(CO)CN1C[C@H]2CCCC[C@H]2C[C@H]1C(=O)NC(C)(C)C)C(=O)NCc1nc2ccccc2[nH]1 (some centres undefined) |  | 280
CC[C@H](C)[C@H](NC(=O)[C@H](Cc1ccccc1)CC(O)CN1C[C@H]2CCCC[C@H]2C[C@H]1C(=O)NC(C)(C)C)C(=O)OC (some centres undefined) |  | > 1750
CC(C)(C)NC(=O)[C@@H]1C[C@@H]2CCCC[C@@H]2CN1CC(O)C[C@@H](Cc1ccccc1)C(=O)N[C@H]1CCCC[C@@H]1NC(=O)c1ccc2ccccc2n1 (some centres undefined) | 70 | 3600
CC(C)(C)NC(=O)[C@@H]1C[C@@H]2CCCC[C@@H]2CN1CC(O)C[C@@H](Cc1ccccc1)C(=O)N[C@H]1CCCC[C@@H]1NC(=O)c1cc2ccccc2cn1 (some centres undefined) | 70 | 1750
CC[C@H](C)[C@H](NC(=O)[C@H](Cc1ccccc1)C[C@@H](O)CN1C[C@H]2CCCC[C@H]2C[C@H]1C(=O)NC(C)(C)C)C(=O)NCc1nc2ccccc2[nH]1 | 30 | 21
CC[C@H](C)[C@H](NC(=O)[C@H](Cc1ccccc1)CC(O)CN1CCC[C@@H]1C(=O)N[C@H](C(=O)OC(C)(C)C)[C@@H](C)CC)C(=O)NCc1nc2ccccc2[nH]1 (some centres undefined) | > 1400 | > 1750
CC(C)(C)NC(=O)[C@@H]1C[C@@H]2CCCC[C@@H]2CN1C[C@@H](O)[C@H](Cc1ccccc1)NC(=O)[C@H](CC(N)=O)NC(=O)c1ccc2ccccc2n1 |  | 3
CC[C@H](C)[C@H](NC(=O)[C@H](Cc1ccccc1)CC(O)CN1C[C@H]2CCCC[C@H]2C[C@H]1C(=O)NC(C)(C)C)C(=O)NCc1ccccn1 (some centres undefined) | 150 | 310
CC[C@H](C)[C@H](NC(=O)[C@H](Cc1ccccc1)CC(O)CN1CCCCC1C(=O)NC(C)(C)C)C(=O)NCc1nc2ccccc2[nH]1 (some centres undefined) | 30 | 480
CC[C@H](C)[C@H](NC(=O)[C@H](Cc1ccccc1)CC(O)(CO)CN(CC(=O)NC(C)(C)C)CC1CCCCC1)C(=O)NCc1nc2ccccc2[nH]1 (some centres undefined) | 140 | > 1750
CC[C@H](C)[C@H](NC(=O)[C@H](Cc1ccccc1)CC(O)CN1C[C@H]2CCCC[C@H]2C[C@H]1C(=O)NC(C)(C)C)C(=O)NCc1nc2ccccc2[nH]1 (single isomer, unassigned) | 30 | 29
CC[C@H](C)[C@H](NC(=O)[C@H](Cc1ccccc1)CC(O)CN1C[C@H]2CCCC[C@H]2C[C@H]1C(=O)NC(C)(C)C)C(=O)NCCc1nc2ccccc2[nH]1 (some centres undefined) | 130 | 850
CC[C@H](C)[C@H](NC(=O)[C@H](Cc1ccccc1)CC(O)CN1CCC[C@@H]1C(=O)NC(C)(C)C)C(=O)NCc1nc2ccccc2[nH]1 (some centres undefined) | 80 | 490
